Several values for one entry are separate records, joined by “and”; a condition that tells them apart may be missing. Identical values can stand only once. Like-named read-outs stand apart in the source and are kept apart here.
How the values were obtained:
premature ejaculation [1] = test: Retrospective analysis of clomipramine with or without a commercial PDE5 inhibitor taken as needed: ejaculation time; details: rated after 8 weeks, one patient per row
erectile dysfunction [2] = test: Retrospective analysis of clomipramine with or without a commercial PDE5 inhibitor taken as needed: subjectively rated erection; details: after 8 weeks, one patient per row
premature ejaculation [3] = details: cited from earlier work
[4] = cited from earlier work; for maximum observed plasma concentration (Cmax): oral administration
[5] = test system: SSRI-induced sexual dysfunction; details: in vivo; cited from earlier work
erectile dysfunction [6] = details: oral administration of 50-100 mg; cited from earlier work

CN(C)CCCN1c2ccccc2CCc2ccc(Cl)cc21 [Clomipramine, clomipramine]
Ejaculation Time (minutes) after treatment (premature ejaculation [1]; Clomipramine 10 mg alone): 10 min
Ejaculation Time (minutes) after treatment (premature ejaculation [1]; Clomipramine 15 mg alone): 10 min and 4 min and 20 min
Ejaculation Time (minutes) after treatment (premature ejaculation [1]; Clomipramine 25 mg alone): 7 minutes (2×) and 20 minutes (2×) and 15 minutes
Ejaculation Time (minutes) after treatment (premature ejaculation [1]; Clomipramine 30 mg alone): 10 minutes (3×) and 15 minutes (2×) and 8 minutes and 4 minutes (2×) and 5 minutes and 20 minutes and 0.25 minutes and 3 minutes
Erection (% satisfaction) after (%) (erectile dysfunction [2]; Clomipramine 10 mg alone): 100%
Erection (% satisfaction) after (%) (erectile dysfunction [2]; Clomipramine 15 mg alone, NC denotes no complain): 100%
Erection (% satisfaction) after (%) (erectile dysfunction [2]; Clomipramine 25 mg alone, NC denotes no complain): 100%
time to climax in premature ejaculators (premature ejaculation [3]; 50 mg): more than 8 minutes
latency to ejaculation (premature ejaculation [3]; 25 milligrams 12 to 24 hours before anticipated sexual activity, from about 1.5 to 2 minutes): about 8 minutes
effect alone in men with premature ejaculations who were also impotent (premature ejaculation [3]; clomipramine alone): ineffective
time of peak plasma levels after dosage ([4]; much individual variation): 2 to 6 h
time required to reach peak plasma concentration, longer than that required by tadalafil ([4]; relative to tadalafil): about 2 hours
time required to reach peak plasma concentration, longer than that required by either vardenafil or sildenafil ([4]; relative to vardenafil or sildenafil): 3 h

CN1CC(=O)N2[C@H](c3ccc4c(c3)OCO4)c3[nH]c4ccccc4c3C[C@@H]2C1=O [tadalafil]
Systemic exposure (AUC) versus dose ([4]; doses from 2.5 mg to 20 mg): increases proportionately
increase in Cmax versus dose ([4]; doses from 2.5 mg to 20 mg): slightly less than proportional
degree of drug accumulation ([4]; once-daily 20 mg dosing): 1.6 fold
time to attain steady-state plasma concentrations ([4]; once-daily 20 mg dosing): ≤ 5 days
maximum observed plasma concentration (Cmax) ([4]; 20 mg): 378 µg/L

CCCc1nc(C)c2c(=O)[nH]c(-c3cc(S(=O)(=O)N4CCN(CC)CC4)ccc3OCC)nn12 [vardenafil]
AUC and Cmax versus dose ([4]; oral dosing, recommended dose range (5-20 mg)): increase in almost direct proportion to the dose

CCCN(CCC)CCc1cccc2c1CC(=O)N2 [ropinrole]
effect on sexual dysfunction induced by citalopram, sertraline, paroxetine, fluoxetine and venlafaxine treatment [5]: effective

CN[C@H]1CC[C@@H](c2ccc(Cl)c(Cl)c2)c2ccccc21 [Sertraline, sertraline]
effect as ejaculation delaying agent (premature ejaculation [3]; 4 hours before sex, primary premature ejaculation versus sildenafil-corrected erectile dysfunction): effective as ejaculation delaying agent only for patients having primary premature ejaculation

CCCc1nn(C)c2c(=O)[nH]c(-c3cc(S(=O)(=O)N4CCN(C)CC4)ccc3OCC)nc12 [sildenafil]
effect alone for men with premature ejaculation (premature ejaculation [3]; PDE5 inhibitor alone): ineffective
maximum observed plasma concentration (Cmax) ([4]; 50-100 mg): 18 µg/L
subjects studied found to respond well (erectile dysfunction [6]): 82%

Source: patent US20090118211A1, “Compositions and Methods for Enhancement of Sexual Function” (priority 2005, published 2009)
